Broadly, the IC50 is the midpoint of a concentration-inhibition curve.

The test concerns MkC1qDC. Nature of the test: hemagglutination inhibition, fixed human group […] erythrocytes, two-fold dilutions. The test is classed as cell-based, Modiolus kurilensis. To be noted: Ca2+-dependent lectin activity, 0.1 mg/mL protein, titer decline by one two-fold dilution, also given as 1.16 mg/mL.

On to `OC[C@H]1OC(O)C[C@@H](O)[C@H]1O` (stereo partly drawn) [2-deoxy-D-galactose], for which, for the setting “also printed as 2.46 mg/mL”, the IC50 amounted to 15 mM. In the case of `OC[C@H]1O[C@H](O[C@@H]2C(O)O[C@H](CO)[C@@H](O)[C@@H]2O)[C@@H](O)[C@@H](O)[C@@H]1O` (stereo partly drawn) [2α- mannobiose], the concentration for half-maximal inhibition (IC50) (also printed as 10.26 mg/mL) was determined as 30 mM. Consider `OC[C@H]1OC(O)[C@H](O)[C@@H](O)[C@H]1O` (stereo partly drawn) [D-galactose], for which the IC50 (also printed as 5.40 mg/mL) is 30 mM.

Take `O=C(O)[C@H]1OC(O)[C@H](O)[C@@H](O)[C@H]1O` (stereo partly drawn) [D-galacturonic acid]: the IC50 (also printed as 1.46 mg/mL) worked out at 7.5 mM.

For the compound `O=C(O)[C@H]1OC(O)[C@H](O)[C@@H](O)[C@@H]1O` (stereo partly drawn) [D-glucuronic acid], the half-maximal inhibitory concentration (IC50) (also printed as 1.46 mg/mL) came out at 7.5 mM. `OC[C@H]1O[C@@H](O[C@H]2[C@H](O)[C@@H](O)C(O)O[C@@H]2CO)[C@H](O)[C@@H](O)[C@H]1O` (stereo partly drawn) [D-lactose]: where the note is “also printed as 5.13 mg/mL”, the IC50 was determined as 15 mM. Regarding `OC[C@@H]1OC(O)[C@@H](O)[C@@H](O)[C@@H]1O` (stereo partly drawn) [L-gulose], for the setting “also printed as 1.35 mg/mL”, the IC50 was found to be 7.5 mM. Take `CC(=O)N[C@H]1[C@H]([C@H](O)[C@H](O)CO)OC(O)(C(=O)O)C[C@@H]1O` (some centres unmarked) [N-acetylneuraminic (sialic) acid]: the IC50 was determined as 3.75 mM.
